# Reference: US12692302B2, “Uses of IL-13 antagonists for treating atopic dermatitis” (Genentech, Inc., priority 2016, dated 2026)
# System: patients with persistent moderate to severe atopic dermatitis inadequately controlled by TCS
# Assay: Clinical Study I (phase II, lebrikizumab + TCS vs placebo + TCS): efficacy outcomes
# Format: in vivo, human
# Conditions: for Mean % Change in % BSA Affected / Mean % Change in EASI / Mean % Change in Pruritus VAS / Mean % Change in SCORAD / Mean % Change in Sleep VAS / Mean Absolute Change in IGA: screening to baseline (2-week TCS run-in, before study drug)
# Description: Clinical Study I was a phase II, randomized, double-blind, placebo-controlled study to evaluate the safety and efficacy of lebrikizumab in patients (age 18-75) with persistent moderate to severe atopic dermatitis that is inadequately controlled by topical corticosteroids (TCS). In this Study, lebrikizumab was tested in combination with TCS.
# The inclusion criteria included the following: age 18 to 75 years; AD diagnosed by the Hanifin/Rajka criteria and that had been present for at least 1 year at screening; moderate to severe AD as graded by the Rajka/Langeland criteria at screening; history of inadequate response to a 1 month (within the 3 months prior to the screening visit) treatment regimen of at least daily TCS and regular emollient for treatment of AD; EASI score 14 at screening and end of the run-in period (Visit 3), IGA score 3 (5-point scale) at screening and end of the run-in period (Visit 3); AD involvement of 10% body surface area (BSA) at screening; and Pruritus VAS score (measured as part of the SCORAD) of 3 at screening.
# Run-in Period. Following the screening visit, eligible patients entered a 2-week run-in period (Days −14 to −1) during which a protocol-specified topical therapy regimen was initiated. On the first day of the run-in period (Day −14) patients received TCS for use throughout the run-in period. Patients were required to apply the following topical therapy regimen daily: emollient to all xerotic skin surfaces, at least once daily; TCS cream consisting of medium potency TCS (triamcinolone acetonide 0.1%), two times per day, only to all active skin lesions.
# Treatment Period. […] The plan was to randomize approximately 200 patients (1:1:1:1) to one of the following four treatment groups (see FIG. 1): (1) Group 1: lebrikizumab 250 mg administered subcutaneously (SC) single dose (Day 1) followed by 2 placebo doses (at Week 4 and at Week 8) for a total of 3 doses+TCS cream; (2) Group 2: lebrikizumab 125 mg SC single dose (Day 1) followed by 2 placebo doses (Week 4 and Week 8) for a total of 3 doses+TCS cream; (3) Group 3: lebrikizumab 125 mg SC every 4 weeks (Q4W) for a total of 3 doses+TCS cream; and (4) Group 4: placebo SC Q4W for a total of 3 doses+TCS cream. Three active doses were included to characterize both exposure-response relationships and dosing frequency requirements.
# Patients randomized to these four study treatment groups received study drug (lebrikizumab or placebo SC) in combination with TCS. Throughout the 12-week treatment period these patients continued to apply emollient at least once daily and triamcinolone acetonide 0.1% cream as described in the run-in period (two times per day to all active skin lesions on the body). […] Patients recorded their use of topical creams and responded to PRO-related questions using a hand held eDiary throughout the treatment period. At each study visit the patient was required to bring their TCS containers to the study site to be weighed.
# Efficacy Outcome Measures. The primary efficacy outcome measure was the percentage of patients achieving EASI-50 (a 50% reduction in EASI score from baseline) at Week 12. […]
# [1] = 125 mg single dose + TCS BID (n = 52), Week 12
# [2] = 250 mg single dose + TCS BID (n = 53), Week 12
substance,measurement,setting,value
"lebrikizumab: monoclonal humanized anti-IL-13 IgG4 antibody; heavy chain SEQ ID NO: 11, light chain SEQ ID NO: 12; formulated at 125 mg/mL in prefilled syringe","% change from baseline in ADIQ, placebo-corrected change",[1],−4.9%
same,"% change from baseline in Pruritus VAS (from SCORAD), mean",[1],−34.92%
same,"% change from baseline in Pruritus VAS (from SCORAD), placebo-corrected change",[1],−7.38%
same,"% change from baseline in Sleep Loss VAS (from SCORAD), mean",[1],−53.1%
same,"% change from baseline in Sleep Loss VAS (from SCORAD), placebo-corrected change",[1],−30.6%
same,"DLQI, % change from baseline, adjusted mean",[1],−34.33%
same,"DLQI, % change from baseline, Δ vs placebo",[1],−0.76%
same,"SCORAD score % change from baseline, adjusted mean",[1],−38.7%
same,"SCORAD score % change from baseline, Δ vs placebo",[1],−3.3%
same,"Total % BSA affected, % change from baseline, adjusted mean",[1],−45.2%
same,"Total % BSA affected, % change from baseline, Δ vs placebo",[1],2.2%
same,"Change from baseline Pruritus VAS, mean % change","250 mg SD + TCS, Week 20",−30.25%
same,"Change from baseline Pruritus VAS, placebo-corrected differences","250 mg SD + TCS, Week 20",−8.79%
same,"Change from baseline in EASI, mean % change","250 mg SD + TCS, Week 20",−55.9%
same,"Change from baseline in EASI, placebo-corrected differences","250 mg SD + TCS, Week 20",−1.88%
same,"Change from baseline in the % BSA affected, mean % change","250 mg SD + TCS, Week 20",−46.4%
same,"Change from baseline in the % BSA affected, placebo-corrected differences","250 mg SD + TCS, Week 20",5.56%
same,"Patients maintaining EASI-50 response at Weeks 12 and 20, %","250 mg SD + TCS, Week 20",(78.4) %
same,"Patients maintaining EASI-50 response at Weeks 12 and 20, placebo-corrected differences","250 mg SD + TCS, Week 20",5.65%
same,"Patients maintaining EASI-75 response at Weeks 12 and 20, %","250 mg SD + TCS, Week 20",(61.5) %
same,"Patients maintaining EASI-75 response at Weeks 12 and 20, placebo-corrected differences","250 mg SD + TCS, Week 20",−5.13%
same,"Patients maintaining IGA 0/1 response at Weeks 12 and 20, %","250 mg SD + TCS, Week 20",(60.0) %
same,"Patients maintaining IGA 0/1 response at Weeks 12 and 20, placebo-corrected differences","250 mg SD + TCS, Week 20",0%
same,"Patients maintaining SCORAD-50 response at Weeks 12 and 20, %","250 mg SD + TCS, Week 20",(64.0) %
same,"Patients maintaining SCORAD-50 response at Weeks 12 and 20, placebo-corrected differences","250 mg SD + TCS, Week 20",−14.60%
same,% Patients achieving EASI-50,[2],(69.8) %
same,"% Patients achieving EASI-50, placebo-corrected changes",[2],7.6%
same,% Patients achieving EASI-75,[2],(49.1) %
same,"% Patients achieving EASI-75, placebo-corrected changes",[2],15.1%
same,% Patients achieving IGA 0/1,[2],(28.3) %
same,"% Patients achieving IGA 0/1, placebo-corrected change",[2],9.4%
same,% Patients achieving SCORAD-50,[2],47.2%
same,"% Patients achieving SCORAD-50, placebo-corrected change",[2],20.8%
same,% Patients achieving SCORAD-75,[2],(11.3) %
same,"% change from baseline in AD Specific health-related QoL - ADIQ, mean",[2],−30.8%
same,"% change from baseline in ADIQ, placebo-corrected change",[2],−1.8%
same,"% change from baseline in Pruritus VAS (from SCORAD), mean",[2],−32.82%
same,"% change from baseline in Pruritus VAS (from SCORAD), placebo-corrected change",[2],−5.28%
same,"% change from baseline in Sleep Loss VAS (from SCORAD), mean",[2],−47.2%
same,"% change from baseline in Sleep Loss VAS (from SCORAD), placebo-corrected change",[2],−24.6%
same,"DLQI, % change from baseline, adjusted mean",[2],−40.67%
same,"DLQI, % change from baseline, Δ vs placebo",[2],−7.09%
same,"SCORAD score % change from baseline, adjusted mean",[2],−42.6%
same,"SCORAD score % change from baseline, Δ vs placebo",[2],−7.2%
same,"Total % BSA affected, % change from baseline, adjusted mean",[2],−38.6%
same,"Total % BSA affected, % change from baseline, Δ vs placebo",[2],8.8%
same,% Patients achieving SCORAD-50,"250 mg single dose + TCS BID (n = 53), Week 12, listed as Lebri",(47.2) %
same,Mean % Change in % BSA Affected,125 mg Q4W group (n = 51),−9.3%
same,Mean % Change in EASI,125 mg Q4W group (n = 51),−9.1%
same,Mean % Change in Pruritus VAS,125 mg Q4W group (n = 51),−15.2%
same,Mean % Change in SCORAD,125 mg Q4W group (n = 51),−7.7%
same,Mean % Change in Sleep VAS,125 mg Q4W group (n = 51),−12.9%
same,Mean Absolute Change in IGA,125 mg Q4W group (n = 51),−0.14
same,Mean % Change in % BSA Affected,125 mg SD group (n = 52),−17.1%
same,Mean % Change in EASI,125 mg SD group (n = 52),−14.3%
same,Mean % Change in Pruritus VAS,125 mg SD group (n = 52),−23.8%
same,Mean % Change in SCORAD,125 mg SD group (n = 52),−12.2%
same,Mean % Change in Sleep VAS,125 mg SD group (n = 52),−29.0%
same,Mean Absolute Change in IGA,125 mg SD group (n = 52),−0.21
same,Mean % Change in % BSA Affected,250 mg SD group (n = 53),−4.3%
same,Mean % Change in EASI,250 mg SD group (n = 53),−10.2%
same,Mean % Change in Pruritus VAS,250 mg SD group (n = 53),−15.5%
same,Mean % Change in SCORAD,250 mg SD group (n = 53),−9.9%
same,Mean % Change in Sleep VAS,250 mg SD group (n = 53),−8.1%
same,Mean Absolute Change in IGA,250 mg SD group (n = 53),−0.17
